Patent publication US20060205769A1, “Piperidine or 8-aza-bicyclo[3.2.1]oct-3-yl derivatives useful as modulators of chemokine receptor activity” (priority 2003, published 2006)
Where a name gives a salt, the structure may show the parent alone.

The compounds below were run against T1, recombinant human CCR5 receptor (Homo sapiens, UniProt P51681) (assay: in vitro radioligand binding assay: inhibition of binding of iodinated MIP-1α to membranes of CHO cells expressing CCR5 (scintillation proximity)). Settings: displacement of 0.1 nM iodinated MIP-1α; negative log (base 10) of IC50; average if tested more than once.
T1 construct: expressed in transfected cells; host or cells: Chinese hamster ovary (CHO) cells; membranes
T1 sequence (P51681 whole entry): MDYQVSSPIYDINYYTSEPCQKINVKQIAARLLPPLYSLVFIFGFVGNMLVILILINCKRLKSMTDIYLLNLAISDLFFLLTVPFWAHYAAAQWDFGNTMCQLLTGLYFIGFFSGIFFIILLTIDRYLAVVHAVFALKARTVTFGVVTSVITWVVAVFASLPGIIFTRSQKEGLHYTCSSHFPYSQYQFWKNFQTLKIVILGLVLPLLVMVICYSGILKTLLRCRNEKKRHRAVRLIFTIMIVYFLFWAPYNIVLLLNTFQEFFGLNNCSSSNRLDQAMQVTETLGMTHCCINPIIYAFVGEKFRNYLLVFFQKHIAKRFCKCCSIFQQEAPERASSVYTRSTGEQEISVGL
Protocol: The ability of compounds to inhibit the binding of MIP-1α was assessed by an in vitro radioligand binding assay. Membranes were prepared from Chinese hamster ovary cells which expressed the recombinant human CCR5 receptor. These membranes were incubated with 0.1 nM iodinated MIP-1α, scintillation proximity beads and various concentrations of the compounds of the invention in 96-well plates. The amount of iodinated MIP-1α bound to the receptor was determined by scintillation counting. Competition curves were obtained for compounds and the concentration of compound which displaced 50% of bound iodinated MIP-1α was calculated (IC50).
In Table IV the results are presented as Pic50 values. A Pic50 value is the negative log (to base 10) of the IC50 result, so an IC50 of 1 μM (that is 1×10^−6M) gives a Pic50 of 6. If a compound was tested more than once then the data below is an average of the probative tests results.

Row | IC50 [nM] | Compound
1 | 3.16 | CS(=O)(=O)c1ccc([C@@H](CCN2CCC(CCS(=O)(=O)N3CCCCC3)CC2)c2cc(F)cc(F)c2)cc1 [Table III Compound 1, (R)-1-{3-(3,5-difluorophenyl)-3-[4-(methylsulfonyl)phenyl]propyl}-4-[2-(piperidin-1-ylsulfonyl)ethyl]piperidine hydrochloride]
2 | 3.98 | CS(=O)(=O)N1CCC([C@@H](CCN2CCC(CCS(=O)(=O)C3CCN(S(=O)(=O)C(F)(F)F)CC3)CC2)c2cc(F)cc(F)c2)CC1 [Table I Compound 3]
3 | 39.8 | CS(=O)(=O)N1CCC([C@@H](CCN2CCC(CCS(=O)(=O)C3CCNCC3)CC2)c2cc(F)cc(F)c2)CC1 [Table I Compound 2]
